Experimental data taken from ChEMBL document CHEMBL5576105, “Synthesis and biological evaluation of O4'-benzyl-hispidol derivatives and analogs as dual monoamine oxidase-B inhibitors and anti-neuroinflammatory agents” (Bioorg Med Chem, 2024).
The source made the active and inactive calls. The rule behind the calls is not given here.

Legend:
[1] = biological target: T1, Amine oxidase [flavin-containing] B (Homo sapiens, UniProt P27338); assay: Inhibition of human recombinant MAO-B expressed in baculovirus-infected BTI cells at 10 uM using benzylamine as substrate preincubated with enzyme for 15 mins followed by substrate addition and measured after 20 mins by Amplex Red reagent based fluorescence analysis; settings: time 35 min
T1 sequence (P27338 whole entry): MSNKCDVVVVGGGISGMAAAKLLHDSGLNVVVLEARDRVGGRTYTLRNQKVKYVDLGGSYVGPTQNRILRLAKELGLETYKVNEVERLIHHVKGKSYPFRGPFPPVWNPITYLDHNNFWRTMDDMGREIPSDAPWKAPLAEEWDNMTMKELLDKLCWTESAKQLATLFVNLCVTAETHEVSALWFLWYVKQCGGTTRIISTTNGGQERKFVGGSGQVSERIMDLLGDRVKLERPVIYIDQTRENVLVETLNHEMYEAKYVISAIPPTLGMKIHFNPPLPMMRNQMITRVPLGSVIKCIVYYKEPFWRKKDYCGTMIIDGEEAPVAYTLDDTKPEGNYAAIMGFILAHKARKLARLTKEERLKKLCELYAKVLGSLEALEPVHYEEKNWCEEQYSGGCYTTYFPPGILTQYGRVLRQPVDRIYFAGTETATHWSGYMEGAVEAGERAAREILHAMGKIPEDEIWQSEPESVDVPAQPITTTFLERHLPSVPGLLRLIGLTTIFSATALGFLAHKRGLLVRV

[2] = biological target: T1, Amine oxidase [flavin-containing] B; assay: Inhibition of human recombinant MAO-B expressed in baculovirus-infected BTI cells using benzylamine as substrate preincubated with enzyme for 15 mins followed by substrate addition and measured after 20 mins by Amplex Red reagent based fluorescence analysis
[3] = biological target: T2, Amine oxidase [flavin-containing] A (Homo sapiens, UniProt P21397); assay: Inhibition of human recombinant MAO-A using p-tyramine as substrate preincubated with enzyme for 15 mins followed by substrate addition and measured after 20 mins by Amplex Red reagent based fluorescence analysis
T2 sequence (P21397 whole entry): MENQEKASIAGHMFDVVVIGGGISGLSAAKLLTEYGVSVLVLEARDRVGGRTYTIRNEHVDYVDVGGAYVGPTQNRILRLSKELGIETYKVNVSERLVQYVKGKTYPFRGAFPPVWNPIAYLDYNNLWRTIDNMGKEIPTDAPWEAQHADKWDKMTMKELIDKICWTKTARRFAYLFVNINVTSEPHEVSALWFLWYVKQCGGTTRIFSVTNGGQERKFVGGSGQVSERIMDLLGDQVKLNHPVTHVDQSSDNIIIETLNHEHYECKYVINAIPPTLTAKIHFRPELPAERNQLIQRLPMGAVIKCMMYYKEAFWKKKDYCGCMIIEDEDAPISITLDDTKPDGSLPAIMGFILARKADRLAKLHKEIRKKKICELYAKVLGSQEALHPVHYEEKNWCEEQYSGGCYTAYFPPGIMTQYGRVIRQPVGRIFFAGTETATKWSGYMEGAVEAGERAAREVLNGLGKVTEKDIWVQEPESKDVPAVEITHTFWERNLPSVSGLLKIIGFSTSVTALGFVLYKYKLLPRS

[4] = species on record: Homo sapiens; assay: Selectivity index, ratio of IC50 for inhibition of human recombinant MAO-A to IC50 for inhibition of human recombinant MAO-B expressed in baculovirus-infected BTI cells
[5] = tested on: BV-2; assay: Cytotoxicity against mouse BV-2 cells assessed as effect on cell viability upto 10 uM; format: toxicity, cell-based; settings: bv-2, 10 µM
[6] = tested on: MAO-B; assay: Safety ratio of cytotoxicity against mouse BV-2 cells to IC50 for inhibition of human recombinant MAO-B expressed in baculovirus-infected BTI cells; format: toxicity
[7] = tested on: BV-2; assay: Cytotoxicity against mouse BV-2 cells assessed as effect on cell viability at 30 uM; format: toxicity, cell-based; settings: bv-2, 30 µM
[8] = tested on: BV-2; assay: Anti-neuroinflammatory activity against mouse BV-2 cells assessed as suppression of LPS-induced NO production; format: functional, cell-based
[9] = tested on: BV-2; assay: Anti-neuroinflammatory activity against mouse BV-2 cells assessed as suppression of LPS-induced NO production at 1 uM; format: functional, cell-based
[10] = tested on: BV-2; assay: Anti-neuroinflammatory activity against mouse BV-2 cells assessed as suppression of LPS-induced NO production at 3 uM; format: functional, cell-based
[11] = tested on: BV-2; assay: Anti-neuroinflammatory activity against mouse BV-2 cells assessed as suppression of LPS-induced PGE2 production; format: functional, cell-based; settings: dose 5-10 µM
[12] = tested on: BV-2; assay: Anti-neuroinflammatory activity against mouse BV-2 cells assessed as suppression of LPS-induced PGE2 production at 10 uM; format: functional, cell-based
[13] = tested on: BV-2; assay: Anti-neuroinflammatory activity against mouse BV-2 cells assessed as suppression of LPS-induced NO production at 10 uM; format: functional, cell-based
[14] = tested on: BV-2; assay: Anti-neuroinflammatory activity against mouse BV-2 cells assessed as suppression of LPS-induced PGE2 production at 5 to 10 uM; format: functional, cell-based; settings: dose 5-10 µM
[15] = biological target: T1, Amine oxidase [flavin-containing] B; assay: Irreversible inhibition of MAO-B (unknown origin) measured after drug wash-out

Structure (SMILES)	inhibition at 10 µM [1] [%]	IC50 [2] [nM]	IC50 [3] [µM]	Ratio IC50 [4]	further results
O=C1/C(=C/c2cccc(OCc3ccccc3Cl)c2)Oc2cc(O)ccc21	41.7	–	–	–	–
O=C1/C(=C/c2cccc(OCc3ccc(F)cc3)c2)Oc2cc(O)ccc21	60.7	2370	> 100	> 42.2	–
O=C1/C(=C/c2cccc(OCc3cccc(F)c3)c2)Oc2cc(O)ccc21	55.1	–	–	–	–
O=C1/C(=C/c2ccc(OCc3ccccc3F)cc2)Oc2cc(O)ccc21	74.2	760	> 100	> 131	Activity [5]: Non-Toxic; selectivity ratio [6]: > 13.1
O=C1/C(=C/c2ccc(OCc3ccc(Br)cc3)cc2)Oc2cc(O)ccc21	41.1	–	–	–	–
O=C1/C(=C/c2ccc(OCc3ccc(F)cc3)cc2)Oc2cc(O)ccc21	68.2	1000	> 100	> 100	Activity [5]: Non-Toxic; Activity [7]: Non-Toxic; selectivity ratio [6]: > 30; Activity [8]: Dose-Dependent Effect; Activity [9]: inactive; Activity [10]: Active; Activity [11]: Dose-Dependent Effect; Activity [12]: Active
O=C1/C(=C/c2ccc(OCc3cccc(Br)c3)cc2)Oc2cc(O)ccc21	67.9	950	> 100	> 106	Activity [5]: Non-Toxic; selectivity ratio [6]: 10.6
COc1cccc(COc2ccc(/C=C3\Oc4cc(O)ccc4C3=O)cc2)c1	59.7	–	–	–	–
O=C1/C(=C/c2cccc(OCc3ccccc3)c2)Oc2cc(O)ccc21	77.8	1110	> 100	> 89.8	–
O=C1/C(=C/c2ccc(OCc3ccccc3)cc2)Oc2cc(O)ccc21	86.7	720	> 100	> 138	Activity [5]: Non-Toxic; Activity [7]: Non-Toxic; selectivity ratio [6]: > 41.6; Activity [8]: Dose-Dependent Effect; Activity [13]: Active; Activity [11]: Dose-Dependent Effect; Activity [14]: Active
O=C1/C(=C/c2cccc(OCc3cccc(Cl)c3)c2)Oc2cc(O)ccc21	61.7	1910	> 100	> 52.3	–
O=C1/C(=C/c2cccc(OCc3cccc([N+](=O)[O-])c3)c2)Oc2cc(O)ccc21	33.9	–	–	–	–
O=C1/C(=C/c2cccc(OCc3cccc(Br)c3)c2)Oc2cc(O)ccc21	62.7	2020	> 100	> 49.6	–
O=C1/C(=C/c2cccc(OCc3ccc(Br)cc3)c2)Oc2cc(O)ccc21	69.6	1670	> 100	> 59.9	–
O=C1/C(=C/c2ccc(OCc3cccc(Cl)c3)cc2)Oc2cc(O)ccc21	59	–	–	–	–
O=C1/C(=C/c2ccc(OCc3ccccc3Br)cc2)Oc2cc(O)ccc21	81.7	440	> 100	> 227	selectivity ratio [6]: > 6
O=C1/C(=C/c2ccc(OCc3cccc([N+](=O)[O-])c3)cc2)Oc2cc(O)ccc21	48.5	–	–	–	–
O=C1/C(=C/c2ccc(OCc3ccccc3Cl)cc2)Oc2cc(O)ccc21	81.3	380	> 100	> 264	inhibition (INH) [15]: Active; Activity [5]: Non-Toxic; selectivity ratio [6]: > 27; Activity [8]: Dose-Dependent Effect; Activity [9]: inactive; Activity [10]: Active; Activity [14]: Active
O=C1/C(=C/c2ccc(OCc3ccc(Cl)cc3)cc2)Oc2cc(O)ccc21	35.6	–	–	–	–
COc1ccc(/C=C2\Oc3cc(O)ccc3C2=O)c(OC)c1OC	–	–	> 100	> 583	–
O=C1/C(=C/c2cccc(OCc3ccccc3Br)c2)Oc2cc(O)ccc21	36	–	–	–	–
O=C1/C(=C/c2ccc(OCc3cccc(F)c3)cc2)Oc2cc(O)ccc21	55.3	–	–	–	–
COc1cccc(COc2cccc(/C=C3\Oc4cc(O)ccc4C3=O)c2)c1	70.1	1060	> 30	> 28.4	–
O=C1/C(=C/c2cccc(OCc3ccccc3F)c2)Oc2cc(O)ccc21	73.9	950	> 100	> 106	–
O=C1/C(=C/c2cccc(OCc3ccc(Cl)cc3)c2)Oc2cc(O)ccc21	70.7	1810	> 100	> 55.2	–
